US9688624B2, “DP2 antagonist and uses thereof” (Brickell Biotech, Inc., priority 2010, dated 2017)
Structures can show the parent of a compound that is named as a salt. Where two headings read alike, the source gives them in different places.

How the values were obtained:
[1] = tested on: DK-PGD2-induced peripheral blood leukocyte influx; test: Guinea pig IV DK-PGD2-induced peripheral blood leukocyte influx; type: in vivo; settings: for EC50 / ED50: Cavia porcellus, Leukocyte, calculated; for EC50: iv, plasma concentration; for ED50: oral
Experimental: Example 19: Guinea Pig IV-DKPGD2-Induced Peripheral Blood Leukocyte to Influx
The ability of Compound 2 to inhibit leukocyte migration in vivo was assessed using intravenous injection of 13,14-dihydro-15-keto-prostaglandin D2 (DK-PGD2). Methods were adapted from those detailed Shichijo et al., 2003, Journal of Pharmacology and Experimental Therapeutics, 307:518-525. Male Hartley guinea pigs were immunized with ovalbumin (OVA) on day 0 by intraperitoneal (IP) injection of 1 ml of a 100 μg/ml solution in Imject Alum. They were then used in the DK-PGD2 procedure between days 14 and 21. Subjects were randomly assigned to receive either vehicle (0.5% methyl cellulose, 4 ml/kg, oral (PO)) or one of three to four doses of test compound. Two hours or eighteen hours after dosing, animals were anesthetized with ketamine and challenged with DK-PGD2 (1 mg/kg, IV). Thirty minutes after IV administration, blood was collected via the marginal ear vein into EDTA tubes for cell analysis. 10 μl blood was lysed in 190 μl water followed by a further 20-fold dilution in PBS. A 10 μl fraction was mixed with equal parts trypan blue and loaded on a hemocytometer. Cells were visualized at a magnification of 40× using a LabPro light microscope and totals counted and recorded. Cells are expressed as total cells×10^8 per ml of blood Inhibition of this effect is determined statistically using Graphpad prism.

[2] = Plasma concentrations in guinea pig DK-PGD2 leukocyte influx study; type: in vivo; settings: Hartley; for concentration at 18.5 h: read-out: concentration of Compound 1 in plasma
Experimental: In the 2 hr study, intravenous DK-PGD2 (IV DK-PGD2) increased the number of peripheral blood leukocytes, mainly lymphocytes, which likely reflects recruitment from bone marrow. […] Plasma concentrations taken 2.5 hours following oral Compound 2 were 45 nM±36 and 120 nM±46 in the 10 mg/kg and 30 mg/kg dose groups, respectively.
In the 18 hr guinea pig study, a significant increase in peripheral blood leukocytes was also observed following IV DK-PGD2 challenge. […] The concentration of Compound 1 in plasma recovered 18.5 hours following oral dose was 4 nM±7, 21 nM±19 and 17 nM±10 in the 10 mg/kg, 30 mg/kg and 100 mg/kg dose groups, respectively.

[3] = Thermodynamic aqueous solubility; type: physicochemical
Experimental: Example 6: Thermodynamic Aqueous Solubility
Aqueous solubility was determined by suspending sufficient compound in water to give a maximum final concentration of ≧20 mg·ml-1 of the parent free-form of the compound. The suspension was equilibrated at 25° C. for 24 hours then the pH was measured. The suspension was then filtered through a glass fibre C filter into a 96 well plate unless stated otherwise. The filtrate was then diluted by a factor of 101. Quantitation was by HPLC with reference to a standard solution of approximately 0.25 mg·ml^−1 in DMSO. Different volumes of the standard, diluted and undiluted sample solutions were injected. The solubility was calculated using the peak areas determined by integration of the peak found at the same retention time as the principal peak in the standard injection.
Analysis was performed on an Agilent HP1100 series system equipped with a diode array detector and using ChemStation software vB.02.01-SR1.

[4] = Plasma concentrations in mouse smoke model; type: in vivo
Experimental: BALB/c mice were exposed to the smoke of 7 unfiltered cigarettes per day via whole-body exposure on days 0, 1, and 2 for a total of 1.75 hours per day. […] The plasma concentrations for Compound 1 measured at trough were 85 and 588 nM at 10 mg/kg and 50 mg/kg, respectively.

CYP3A4 = CYP3A4 (Homo sapiens (Human), UniProt P08684); settings: human hepatocytes, 10 μM
mouse DP2 = mouse DP2 (Mus musculus (Mouse), UniProt Q9Z2J6); test: In vitro DP2/CRTH2 radioligand ([3H]PGD2) membrane binding assay; settings: average
Sequence of mouse DP2 (Q9Z2J6 whole entry): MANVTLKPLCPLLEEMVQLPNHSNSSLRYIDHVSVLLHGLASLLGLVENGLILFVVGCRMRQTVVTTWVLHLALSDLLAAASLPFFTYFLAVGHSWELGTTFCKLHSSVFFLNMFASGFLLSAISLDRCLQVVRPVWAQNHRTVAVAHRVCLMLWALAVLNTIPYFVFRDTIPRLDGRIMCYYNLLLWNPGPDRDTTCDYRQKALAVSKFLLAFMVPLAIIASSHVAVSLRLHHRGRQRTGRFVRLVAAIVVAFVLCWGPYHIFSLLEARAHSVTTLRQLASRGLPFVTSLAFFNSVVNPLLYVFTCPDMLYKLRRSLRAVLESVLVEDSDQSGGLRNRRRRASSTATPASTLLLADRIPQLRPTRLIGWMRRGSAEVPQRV
Experimental: (§1) Example 15: In Vitro DP2/CRTH2 Binding Assay
(§2) The ability of Compound 1 to bind to the human DP2 receptor was assessed via a radioligand binding assay using [^3H]PGD2. HEK293 cells stably expressing recombinant human DP2 are resuspended in 10 mM Hepes, 7.4 containing 1 mM DTT, lysed and centrifuged at 75,000×g to pellet the membranes. The membranes are resuspended in 10 mM Hepes, 7.4 containing 1 mM DTT and 10% glycerol to approximately 5 mg protein/ml. Membranes (2-10 μg protein/well) are incubated in 96-well plates with 1 nM [^3H]PGD2 and Compound 1 in Assay Buffer (50 mM Hepes, 10 mM MnCl2, 1 mM EDTA, plus or minus 0.2% human serum albumin, pH 7.4) for 60 minutes at room temperature. The reactions are terminated by rapid filtration through Whatman GF/C glass fibre filter plates. The filter plates were pre-soaked in 0.33% polythylenimine for 30 minutes at room temperature then washed in Wash Buffer (50 mM Hepes, 0.5 M NaCl pH 7.4) prior to harvesting. After harvesting, the filter plates are washed 3 times with 1 ml cold Wash Buffer then dried. Scintillant is then added to the plates and the radioactivity retained on the filters is determined on a Packard TopCount (Perkin Elmer). Specific binding is determined as total radioactive binding minus non-specific binding in the presence of 10 μM PGD2. IC50s were determined using GraphPad prism analysis of drug titration curves. Mouse, rat and guinea pig DP2 receptors were also investigated.
(§3) The binding potency of Compound 1 is only slightly shifted in the presence of species-specific serum albumin.

rat DP2 = rat DP2 (Rattus norvegicus (Rat), UniProt Q6XKD3); test: as above; settings: average
Sequence of rat DP2 (Q6XKD3 whole entry): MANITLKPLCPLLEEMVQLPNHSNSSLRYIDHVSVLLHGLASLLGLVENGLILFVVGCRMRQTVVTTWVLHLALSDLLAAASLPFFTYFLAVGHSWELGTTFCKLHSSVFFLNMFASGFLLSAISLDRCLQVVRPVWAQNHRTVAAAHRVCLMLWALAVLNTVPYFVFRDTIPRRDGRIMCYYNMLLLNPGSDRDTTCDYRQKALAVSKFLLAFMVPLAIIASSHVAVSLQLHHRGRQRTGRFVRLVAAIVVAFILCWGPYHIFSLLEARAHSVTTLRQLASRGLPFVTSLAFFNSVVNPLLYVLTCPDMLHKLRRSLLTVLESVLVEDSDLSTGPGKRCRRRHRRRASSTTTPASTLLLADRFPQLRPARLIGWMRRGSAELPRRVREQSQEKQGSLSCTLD
Experimental: as §1, §2, §3

CYP2C9 = CYP2C9 (Homo sapiens (Human), UniProt P11712); test: Extracellular cytochrome P450 inhibition (microsomes); type: in vitro ADME; settings: 2C9, diclofenac 4′-hydroxylation
Sequence of CYP2C9 (P11712 whole entry): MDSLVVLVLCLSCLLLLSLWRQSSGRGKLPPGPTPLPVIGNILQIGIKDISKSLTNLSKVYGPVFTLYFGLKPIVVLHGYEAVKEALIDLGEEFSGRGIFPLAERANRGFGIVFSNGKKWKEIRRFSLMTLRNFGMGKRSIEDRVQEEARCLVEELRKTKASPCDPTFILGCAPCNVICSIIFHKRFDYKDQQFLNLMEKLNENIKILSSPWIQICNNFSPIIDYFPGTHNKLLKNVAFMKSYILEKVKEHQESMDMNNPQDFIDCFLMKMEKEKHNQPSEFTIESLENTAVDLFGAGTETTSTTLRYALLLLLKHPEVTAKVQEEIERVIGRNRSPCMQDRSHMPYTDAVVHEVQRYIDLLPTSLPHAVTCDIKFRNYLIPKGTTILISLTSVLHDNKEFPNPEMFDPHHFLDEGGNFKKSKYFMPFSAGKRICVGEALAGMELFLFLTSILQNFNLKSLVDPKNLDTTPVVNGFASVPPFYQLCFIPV

[5] = water, listed as Amorphous Compound 2, sodium salt

COc1ccc(CC(=O)O)cc1Oc1ccc(NC(=O)C(C)(C)C)cc1CSC(C)(C)C [Compound 1, 2-(3-(2-((tert-butylthio)methyl)-4-(2,2-dimethyl-propionylamino)phenoxy)-4-methoxyphenyl)acetic acid]
EC50 ([1]; 18 hr study, read-out: 18-hr EC50, inhibition of IV-DK-PGD2-induced leukocyte influx): 0.018 µM | concentration at 18.5 h ([2]; 18.5 hours after oral 10 mg/kg): 4 nM | concentration at 18.5 h ([2]; 18.5 hours after oral 30 mg/kg): 21 nM | concentration at 18.5 h ([2]; 18.5 hours after oral 100 mg/kg): 17 nM | Solubility mg/ml Free Base equivalent ([3]; test solvent pH 1.5, 25° C., 24 hours, listed as Compound 1 Pattern 1): 0.013 mg/mL | Solubility mg/ml Free Base equivalent ([3]; test solvent pH 4.0, 25° C., 24 hours, listed as Compound 1 Pattern 1): 0.0059 mg/mL | solubility at 24 h ([3]; test solvent pH 5.0, 25 °C, pH 5, aqueous buffer, thermodynamic from solid, test solvent pH 5.0, 25° C., 24 hours, read-out: Solubility mg/ml Free Base equivalent): 0.027 mg/mL | Solubility mg/ml Free Base equivalent ([3]; test solvent pH 6.5, 25° C., 24 hours, listed as Compound 1 Pattern 1): 0.39 mg/mL | Solubility mg/ml Free Base equivalent ([3]; test solvent pH 7.4, 25° C., 24 hours, listed as Compound 1 Pattern 1): 7.6 mg/mL | Thermodynamic solubility in water ([3]; water, listed as Pattern 1 of Compound 1): 6200 µg/mL | plasma concentration for Compound 1 at trough ([4]; 10 mg/kg PO daily): 85 nM | plasma concentration for Compound 1 at trough ([4]; 50 mg/kg PO daily): 588 nM | induction of CYP3A4 (CYP3A4): not a strong inducer | IC50 (mouse DP2; 0.2% species-specific albumin, read-out: IC50, radioligand membrane binding on mouse DP2): 0.0114 µM | IC50 (mouse DP2; without serum albumin, read-out: IC50, inhibition of radiolabeled PGD2 binding to mouse DP2): 0.0097 µM | IC50 (rat DP2; 0.2% species-specific albumin, read-out: IC50, radioligand membrane binding on rat DP2): 0.0104 µM | IC50 (rat DP2; without serum albumin, read-out: IC50, inhibition of radiolabeled PGD2 binding to rat DP2): 0.007 µM

COc1ccc(CC(=O)O)cc1Oc1ccc(NC(=O)C(C)(C)C)cc1CSC(C)(C)C [Compound 2, 2-(3-(2-((tert-butylthio)methyl)-4-(2,2-dimethyl-propionylamino)phenoxy)-4-methoxyphenyl)acetic acid, sodium salt]
% inhibition of DK-PGD2-induced peripheral blood leukocyte increase ([1]; 2 hr study, 10 mg/kg oral): 19 (±23) % | % inhibition of DK-PGD2-induced peripheral blood leukocyte increase ([1]; 2 hr study, 30 mg/kg oral): 107 (±9) % | % inhibition of peripheral blood leukocyte numbers ([1]; 18 hr study, 10 mg/kg oral): 29 (±14) % | % inhibition of peripheral blood leukocyte numbers ([1]; 18 hr study, 30 mg/kg oral): 50 (±8) % | % inhibition of peripheral blood leukocyte numbers ([1]; 18 hr study, 100 mg/kg oral): 77 (±12) % | EC50 ([1]; 2 hr study, read-out: EC50 associated with ED50): 0.05 µM | ED50 ([1]; 2 hr study): 11 mg/kg | ED50 ([1]; 18 hr study): 63 mg/kg | IC50 (CYP2C9): > 50 µM | concentration at 2.5 h ([2]; 2.5 hours after oral 10 mg/kg): 45 nM | concentration at 2.5 h ([2]; 2.5 hours after oral 30 mg/kg): 120 nM | Solubility mg/ml Free Base equivalent ([3]; test solvent pH 1.5, 25° C., 24 hours, listed as Compound 2 Pattern 1, sodium salt): 0.0058 mg/mL | pH of Unfiltered Saturated solution ([3]; test solvent pH 1.5, listed as Compound 2 Pattern 1, sodium salt): 2.73 | Solubility mg/ml Free Base equivalent ([3]; test solvent pH 4.0, 25° C., 24 hours, listed as Compound 2 Pattern 1, sodium salt): 0.0023 mg/mL | pH of Unfiltered Saturated solution ([3]; test solvent pH 4.0, listed as Compound 2 Pattern 1, sodium salt): 4.67 | Solubility mg/ml Free Base equivalent ([3]; test solvent pH 5.0, 25° C., 24 hours, listed as Compound 2 Pattern 1, sodium salt): 0.04 mg/mL | pH of Unfiltered Saturated solution ([3]; test solvent pH 5.0, listed as Compound 2 Pattern 1, sodium salt): 5.88 | Solubility mg/ml Free Base equivalent ([3]; test solvent pH 6.5, 25° C., 24 hours, listed as Compound 2 Pattern 1, sodium salt): 4.1 mg/mL | pH of Unfiltered Saturated solution ([3]; test solvent pH 6.5, listed as Compound 2 Pattern 1, sodium salt): 7.06 | Solubility mg/ml Free Base equivalent ([3]; test solvent pH 7.4, 25° C., 24 hours, listed as Compound 2 Pattern 1, sodium salt): 18.0 mg/mL | pH of Unfiltered Saturated solution ([3]; test solvent pH 7.4, listed as Compound 2 Pattern 1, sodium salt): 7.97 | Thermodynamic solubility in water [3, 5]: > 20000 µg/mL | pH of unfiltered solution [3, 5]: 8.18
